Reference: ChEMBL document CHEMBL5728971, “Small molecule inhibitors of lactate dehydrogenase and methods of use thereof” (2022)

Experiment: Biochemical Assay: Test compounds were placed in a Greiner Bio-One (Monroe, N.C.) 1536-well black solid bottom assay plate. 200 millimolar (mM) Tris HCl, pH 7.4, 100 micromolar (μM) EDTA and 0.01% TWEEN-20™, final concentration, was used as the assay buffer. The LDHA reagent was 2 nanomolar (nM) Human LDHA (Meridian Life Science, Inc., Memphis, Tenn.), final concentration, in assay buffer.

Question: Which IC50 does the source give for `COc1cccc(-c2cc(-c3nn(-c4nc(C(=O)O)cs4)c(C4CC4)c3Cc3ccc(S(N)(=O)=O)c(F)c3)ccc2F)c1` here?
Answer: < 100 nM

Question: For `Cc1ccc(-c2cc(-c3nn(-c4nc(C(=O)O)cs4)c(C4CC4)c3Cc3ccc(S(N)(=O)=O)c(F)c3)ccc2F)cc1`, which IC50 is on record?
Answer: < 100 nM

Question: For `NS(=O)(=O)c1ccc(Cc2c(-c3cccc(OC4CCCC4)c3)nn(-c3nc(C(=O)O)cs3)c2CC2CC2)cc1`, which IC50 is on record?
Answer: < 100 nM

Question: Which IC50 does the source give for `NS(=O)(=O)c1ccc(Cc2c(-c3ccc(F)c(C4=CCNCC4)c3)nn(-c3nc(C(=O)O)cs3)c2CC2CC2)cc1F` here?
Answer: < 100 nM

Question: Which IC50 does the source give for `COc1cc(-c2c(Cc3ccc(S(N)(=O)=O)cc3)c(CC3CC3)nn2-c2nc(C(=O)O)cs2)ccc1F` here?
Answer: in the range around 29000 nM

Question: With `Cc1ccc(-c2cccc(-c3nn(-c4nc(C(=O)O)cs4)c(C4CC4)c3Cc3ccc(S(N)(=O)=O)cc3F)c2)cc1` as the compound, how does the IC50 read?
Answer: < 100 nM

Question: Which IC50 does the source give for `NS(=O)(=O)c1ccc(Cc2c(-c3cccc(OCc4ccccc4)c3)nn(-c3nc(C(=O)O)cs3)c2CC2CC2)cc1F` here?
Answer: < 100 nM

Question: For `COc1cccc(-c2cccc(-c3nn(-c4nc(C(=O)O)cs4)c(C(F)(F)F)c3Cc3ccc(S(N)(=O)=O)cc3)c2)c1`, which IC50 is on record?
Answer: < 100 nM

Question: Which IC50 does the source give for `COCC#Cc1cc(-c2nn(-c3nc(C(=O)O)cs3)c(CC3CC3)c2Cc2ccc(S(N)(=O)=O)c(F)c2)ccc1F` here?
Answer: < 100 nM

Question: Which IC50 does the source give for `CCOC(=O)c1csc(-n2nc(-c3cccc(-c4ccccc4)c3)c(Cc3ccc(S(N)(=O)=O)cc3)c2CC2CC2)n1` here?
Answer: in the range around 29000 nM

Question: For `Cn1cncc1C#Cc1cc(-c2nn(-c3nc(C(=O)O)cs3)c(CC3CC3)c2Cc2ccc(S(N)(=O)=O)c(F)c2)ccc1F`, which IC50 is on record?
Answer: < 100 nM

Question: With `NS(=O)(=O)c1ccc(Cc2c(CC3CC3)nn(-c3nc(C(=O)O)cs3)c2-c2ccc(F)c(-c3cccc(F)c3)c2)cc1F` as the compound, how does the IC50 read?
Answer: in the range around 29000 nM

Question: Which IC50 does the source give for `CCOC(=O)c1csc(-n2nc(-c3ccc(F)c(C#CC4CCCC4)c3)c(Cc3ccc(S(N)(=O)=O)c(F)c3)c2CC2CC2)n1` here?
Answer: > 57000 nM

Question: For `NS(=O)(=O)c1ccc(Cc2c(-c3cccc(-c4ccccc4)c3)nn(-c3nc(C(=O)O)cs3)c2CC2CC2)c(F)c1`, which IC50 is on record?
Answer: < 100 nM

Question: Which IC50 does the source give for `Cc1ccc(-c2cccc(-c3nn(-c4nc(C(=O)O)cs4)c(CC4CC4)c3Cc3ccc(S(N)(=O)=O)cc3F)c2)cc1` here?
Answer: < 100 nM

Question: Which IC50 does the source give for `NS(=O)(=O)c1ccc(Cc2c(-c3ccc(F)c(C4=COCCC4)c3)nn(-c3nc(C(=O)O)cs3)c2CC2CC2)cc1F` here?
Answer: < 100 nM

Question: For `NS(=O)(=O)c1ccc(Cc2c(C3CCCC3)nn(-c3nc(C(=O)O)cs3)c2-c2ccccc2)cc1`, which IC50 is on record?
Answer: in the range around 29000 nM

Question: Which IC50 does the source give for `CC(C)(C)/C=C/c1cc(-c2nn(-c3nc(C(=O)O)cs3)c(CC3CC3)c2Cc2ccc(S(N)(=O)=O)c(F)c2)ccc1F` here?
Answer: < 100 nM

Question: For `NS(=O)(=O)c1ccc(Cc2c(CC3CC3)nn(-c3nc(C(=O)O)cs3)c2-c2ccc(F)c(-c3cccc(F)c3)c2)c(F)c1`, which IC50 is on record?
Answer: in the range around 29000 nM

Question: For `CCOC(=O)c1csc(-n2nc(-c3cccc(-c4ccccc4)c3)c(Cc3ccc(S(N)(=O)=O)cc3)c2C2(C(F)(F)F)CC2)n1`, which IC50 is on record?
Answer: > 57000 nM

Question: For `NS(=O)(=O)c1ccc(Cc2c(-c3ccc(F)c(C#CC4(O)CCOC4)c3)nn(-c3nc(C(=O)O)cs3)c2CC2CC2)cc1F` (stereo unspecified), which IC50 is on record?
Answer: < 100 nM

Question: For `NS(=O)(=O)c1ccc(Cc2c(-c3ccc(F)c(-c4ccc(F)s4)c3)nn(-c3nc(C(=O)O)cs3)c2CC2CC2)cc1F`, which IC50 is on record?
Answer: < 100 nM

Question: Which IC50 does the source give for `NS(=O)(=O)c1ccc(Cc2c(-c3ccc(F)c(CCCCC(F)(F)F)c3)nn(-c3nc(C(=O)O)cs3)c2CC2CC2)cc1F` here?
Answer: < 100 nM

Question: Which IC50 does the source give for `CCOC(=O)c1csc(-n2nc(-c3ccc(F)c(C#CC4CCCC4)c3)c(Cc3ccc(S(N)(=O)=O)cc3)c2CC2CC2)n1` here?
Answer: in the range around 29000 nM

Question: Which IC50 does the source give for `O=C(O)c1csc(-n2nc(-c3ccccc3)cc2C(F)(F)F)n1` here?
Answer: in the range around 29000 nM

Question: With `Cc1ccc(-c2cccc(-c3nn(-c4nc(C(=O)O)cs4)c(CC4CC4)c3Cc3ccc(S(N)(=O)=O)cc3)c2)cc1` as the compound, how does the IC50 read?
Answer: < 100 nM

Question: For `NS(=O)(=O)c1ccc(Cc2c(-c3cccc(N4CCCC(F)(F)C4)c3)nn(-c3nc(C(=O)O)cs3)c2CC2CC2)cc1F`, which IC50 is on record?
Answer: < 100 nM

Question: With `NS(=O)(=O)c1ccc(Cc2c(-c3ccc(F)c(C#CCN4CCCC4)c3)nn(-c3nc(C(=O)O)cs3)c2CC2CC2)cc1F` as the compound, how does the IC50 read?
Answer: < 100 nM

Question: For `Cc1noc(C)c1-c1cc(-c2nn(-c3nc(C(=O)O)cs3)c(CC3CC3)c2Cc2ccc(S(N)(=O)=O)cc2F)ccc1F`, which IC50 is on record?
Answer: < 100 nM

Question: Which IC50 does the source give for `NS(=O)(=O)c1ccc(Cc2c(CC3CC3)nn(-c3nc(C(=O)O)cs3)c2-c2ccc(F)c(-c3ccc(F)cc3)c2)c(F)c1` here?
Answer: in the range around 29000 nM

Question: With `NS(=O)(=O)c1ccc(Cc2c(-c3ccc(F)c(-c4ccccc4)c3)nn(-c3nc(C(=O)O)cs3)c2CC2CC2)cc1` as the compound, how does the IC50 read?
Answer: < 100 nM

Question: Which IC50 does the source give for `O=C(O)c1csc(-n2nc(-c3cc(F)cc(F)c3)cc2O)n1` here?
Answer: > 57000 nM

Question: Which IC50 does the source give for `Cc1ccc(-c2cc(-c3nn(-c4nc(C(=O)O)cs4)c(C4CC4)c3Cc3ccc(S(N)(=O)=O)cc3F)ccc2F)cc1` here?
Answer: < 100 nM

Question: For `O=C(O)c1csc(-n2nc(-c3ccc(F)cc3)cc2O)n1`, which IC50 is on record?
Answer: > 57000 nM

Question: For `O=C(O)c1csc(-n2nc(-c3ccc(F)cc3F)cc2O)n1`, which IC50 is on record?
Answer: > 57000 nM

Question: For `CCOC(=O)c1csc(-n2nc(-c3ccc(F)c(-c4ccc(F)cc4)c3)c(Cc3ccc(S(N)(=O)=O)cc3F)c2CC2CC2)n1`, which IC50 is on record?
Answer: in the range around 29000 nM

Question: With `COc1cccc(-c2cc(-c3nn(-c4nc(C(=O)O)cs4)c(CC4CC4)c3Cc3ccc(S(N)(=O)=O)c(F)c3)ccc2F)c1` as the compound, how does the IC50 read?
Answer: < 100 nM

Question: With `NS(=O)(=O)c1ccc(Cc2c(CC3CC3)nn(-c3nc(C(=O)O)cs3)c2-c2cccc(-c3ccccc3)c2)c(F)c1` as the compound, how does the IC50 read?
Answer: in the range around 29000 nM

Question: For `CN1CCC(c2cc(-c3nn(-c4nc(C(=O)O)cs4)c(CC4CC4)c3Cc3ccc(S(N)(=O)=O)c(F)c3)ccc2F)CC1`, which IC50 is on record?
Answer: < 100 nM

Question: Which IC50 does the source give for `NS(=O)(=O)c1ccc(Cc2c(-c3ccc(F)c(-c4cccc(F)c4)c3)nn(-c3nc(C(=O)O)cs3)c2CC2CC2)c(F)c1` here?
Answer: < 100 nM

Question: Which IC50 does the source give for `CN1CC=C(c2cc(-c3nn(-c4nc(C(=O)O)cs4)c(CC4CC4)c3Cc3ccc(S(N)(=O)=O)c(F)c3)ccc2F)CC1` here?
Answer: < 100 nM

Question: With `NS(=O)(=O)c1ccc(Cc2c(-c3ccc(F)c(-c4cccc(CN5CCOCC5)c4)c3)nn(-c3nc(C(=O)O)cs3)c2CC2CC2)cc1F` as the compound, how does the IC50 read?
Answer: < 100 nM

Question: For `CNS(=O)(=O)c1ccc(Cc2c(-c3cccc(-c4ccccc4)c3)nn(-c3nc(C(=O)O)cs3)c2O)cc1`, which IC50 is on record?
Answer: > 57000 nM

Question: Which IC50 does the source give for `Cc1ccc(-c2cccc(-c3nn(-c4nc(C(=O)O)cs4)c(C(F)(F)F)c3Cc3ccc(S(N)(=O)=O)cc3)c2)cc1` here?
Answer: < 100 nM

Question: Which IC50 does the source give for `NS(=O)(=O)c1ccc(Cc2c(CC3CC3)nn(-c3nc(C(=O)O)cs3)c2-c2ccc(F)c(-c3ccc(F)cc3)c2)cc1` here?
Answer: in the range around 29000 nM

Question: With `CCOC(=O)c1csc(-n2nc(CC3CC3)c(Cc3ccc(S(N)(=O)=O)cc3F)c2-c2ccc(F)c(-c3cccc(F)c3)c2)n1` as the compound, how does the IC50 read?
Answer: > 57000 nM

Question: With `NS(=O)(=O)c1ccc(Cc2c(-c3ccc(F)c(-c4cccc(F)c4)c3)nn(-c3nc(C(=O)O)cs3)c2C2CC2)cc1F` as the compound, how does the IC50 read?
Answer: < 100 nM

Question: For `NS(=O)(=O)c1ccc(Cc2c(-c3ccc(F)c(-c4cccc(F)c4)c3)nn(-c3nc(C(=O)O)cs3)c2CC2CC2)cc1`, which IC50 is on record?
Answer: < 100 nM

Question: With `CCOC(=O)c1csc(-n2nc(-c3ccc(F)c(-c4ccc(C)cc4)c3)c(Cc3ccc(S(N)(=O)=O)c(F)c3)c2CC2CC2)n1` as the compound, how does the IC50 read?
Answer: in the range around 29000 nM

Question: With `CC#Cc1cc(-c2nn(-c3nc(C(=O)O)cs3)c(CC3CC3)c2Cc2cccc(S(N)(=O)=O)c2)ccc1F` as the compound, how does the IC50 read?
Answer: < 100 nM

Question: Which IC50 does the source give for `Cc1csc(-c2cc(-c3nn(-c4nc(C(=O)O)cs4)c(CC4CC4)c3Cc3ccc(S(N)(=O)=O)cc3F)ccc2F)c1` here?
Answer: < 100 nM
